Where two headings read alike, the source gives them in different places. Where no end group is shown, it is not given here.
Columns and labels:
TRPA1 [1] = details: cited from earlier work; for activation of TRPA1 via covalent modification: ref [40]-[44]; for activation of TRPA1 by allosteric modulators: interact with transmembrane domains, not the intracellular C-terminus, ref [41], [45], [46]
TRPA1 [2] = molecular target: TRPA1 (Homo sapiens, UniProt O75762); format: cell-based; details: alanine scanning of t-ProTx-I; label = residue mutated to Ala
Chain of TRPA1 (Homo sapiens, UniProt O75762) (O75762 whole entry): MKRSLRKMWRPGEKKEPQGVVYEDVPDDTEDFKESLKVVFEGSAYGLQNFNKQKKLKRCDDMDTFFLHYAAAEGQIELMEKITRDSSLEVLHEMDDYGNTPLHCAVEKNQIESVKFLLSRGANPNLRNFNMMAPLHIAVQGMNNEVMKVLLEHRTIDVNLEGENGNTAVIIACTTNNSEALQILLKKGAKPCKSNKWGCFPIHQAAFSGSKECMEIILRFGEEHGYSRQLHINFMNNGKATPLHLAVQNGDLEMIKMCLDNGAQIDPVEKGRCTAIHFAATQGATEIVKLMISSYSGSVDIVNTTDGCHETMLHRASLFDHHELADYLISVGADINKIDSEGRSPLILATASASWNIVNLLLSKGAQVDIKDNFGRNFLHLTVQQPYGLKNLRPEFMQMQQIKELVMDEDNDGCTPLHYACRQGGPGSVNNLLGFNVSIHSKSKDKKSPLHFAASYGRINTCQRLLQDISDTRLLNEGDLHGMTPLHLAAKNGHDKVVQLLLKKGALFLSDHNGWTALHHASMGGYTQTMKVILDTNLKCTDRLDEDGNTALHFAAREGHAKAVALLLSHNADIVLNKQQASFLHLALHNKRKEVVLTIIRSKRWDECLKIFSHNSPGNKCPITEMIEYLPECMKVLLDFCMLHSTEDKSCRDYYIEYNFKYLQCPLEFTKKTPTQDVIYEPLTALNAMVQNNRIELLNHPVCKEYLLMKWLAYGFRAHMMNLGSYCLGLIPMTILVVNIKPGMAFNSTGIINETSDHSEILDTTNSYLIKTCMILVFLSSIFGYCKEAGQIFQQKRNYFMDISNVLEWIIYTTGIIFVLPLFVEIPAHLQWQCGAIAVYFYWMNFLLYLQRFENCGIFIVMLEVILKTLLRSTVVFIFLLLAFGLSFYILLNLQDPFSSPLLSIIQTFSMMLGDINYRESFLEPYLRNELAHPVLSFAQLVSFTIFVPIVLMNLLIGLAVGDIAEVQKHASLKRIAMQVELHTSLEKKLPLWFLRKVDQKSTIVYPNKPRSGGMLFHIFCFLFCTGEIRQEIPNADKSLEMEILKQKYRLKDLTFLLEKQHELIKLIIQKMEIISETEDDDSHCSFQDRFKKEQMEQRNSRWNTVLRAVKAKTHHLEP

NaV1.2 = format: cell-based; details: membrane-tethered, co-expressed; voltage-induced currents

Oc1c(I)cc(Cl)c2cccnc12 [clioquinol]
activation of TRPA1 (TRPA1 [1]; ref [9]): activated

CCCCCC(O)/C=C/C=O (stereo not shown) [4-hydroxy-nonenal]
activation of TRPA1 via covalent modification (TRPA1 [1]): activates TRPA1

t-ProTx-I (S22A) (ECRYWLGGCSAGQTCCKHLVCARRHGWCVWDGTFS; ends and bridges not checked; also: membrane tether; UniProt P83480 1-35, looked up, variant S22A)
residue whose mutation to alanine reduces inhibition of TRPA1 (binding surface) (TRPA1 [2]): in common between the two binding surfaces | activity of t-ProTx-I alanine mutant against NaV1.2 / voltage-gated sodium channels (NaV1.2): strongly active

CC1CCC(C(C)C)C(O)C1 (stereo not shown) [menthol]
activation of TRPA1 by allosteric modulators (TRPA1 [1]): allosteric modulators

OCl [hypochlorite]
activation of TRPA1 via covalent modification (TRPA1 [1]): activates TRPA1

Cc1ccc(C(C)C)cc1O [carvacrol]
activation of TRPA1 by allosteric modulators (TRPA1 [1]): allosteric modulators

C=CCS[S+]([O-])CC=C (stereo not shown) [allicin]
activation of TRPA1 (TRPA1 [1]; ref [5], [6]): activated

Clc1ccccc1C(c1ccccc1)(c1ccccc1)n1ccnc1 [clotrimazole]
activation of TRPA1 (TRPA1 [1]; ref [7]): activated

OO [hydrogen peroxide]
activation of TRPA1 via covalent modification (TRPA1 [1]): activates TRPA1

CN(C)CCCN1c2ccccc2Sc2ccc(Cl)cc21 [chlorpromazine]
activation of TRPA1 (TRPA1 [1]; ref [8]): activated

C=CCN=C=S [allyl isothiocyanate]
activation of TRPA1 via covalent modification (TRPA1 [1]): activates TRPA1 | activation of TRPA1 (TRPA1 [1]; ref [5], [6]): activated

From paper PMC3949122 (Current biology : CB, 2014)
